The values that follow come from patent US20090253721A1, “Combined treatment with radiation and an epidermal growth factor receptor kinase inhibitor” (priority 2004, published 2009).

In assay [1] the test system is HNSCC and NSCLC cell lines. Briefly: Apoptosis by fluorescein labeled caspase inhibitor (caspase activity), cell lines pooled. Type of assay: cell-based, human. The following applies: erlotinib alone 1 μM x 48 hrs. The procedure: (§1) Cells were seeded in 100-mm dishes at a density of 6×10^5 cells per plate and upon treatment, were harvested by trypsinization, centrifuged, and the cell pellet re-suspended to a final concentration of 2×10^6 cells/ml. Caspase activity was analyzed by fluorescence spectroscopy according to the manufacturer's protocol (Chemicon International). Briefly, the 300 μL of cells were incubated with 1× Fluorescein labeled pan-caspase inhibitor FAM-VAD-FMK (Ekert, P. G., et al. (1999) Cell Death Differ. 6(11):1081-6) at 37° C. for 1 hr in a humidified atmosphere of 5% CO2. Cells were then washed twice with wash buffer, finally resuspended in 320 μL PBS. A 100 μL aliquot of the cell suspension was transferred to a black 96-well plate in triplicate. Fluorescence was analyzed on a SpectraMax fluorescence plate reader at 550 nm excitation and 600 nm emission wavelengths.

Another assay relates to refractory NSCLC. The following applies: refractory NSCLC patients receiving erlotinib; cited from earlier work.
The next assay deals with H226 xenografts. Kind of assay: Tumor growth in athymic nude mice, H226 xenografts.
Assay [2] deals with UM-SCC1 cells. Kind of assay: Radiation clonogenic survival, UM-SCC1. In kind it is cell-based, human. The following applies: erlotinib 0.1 μM for 3 days before irradiation, 3, 6, and 9 Gy (p<0.01).
Description: (§3) Survival following radiation exposure was defined as the ability of the cells to maintain their clonogenic capacity and to form colonies. Briefly, after exposure to radiation, cells were trypsinized, counted and seeded for colony formation in 35-mm dishes at 50-5000 cells/dish. After incubation intervals of 14-21 days, colonies were stained with crystal violet and manually counted. Colonies consisting of 50 cells or more were scored, and 5 replicate dishes containing 10-150 colonies/dish were counted for each treatment. Experiments were performed in duplicate.
Assay [3] relates to H226 cells. Kind of assay: Apoptosis by caspase activity, H226. In kind it is cell-based, human. The following applies: erlotinib 1 μM combined with radiation 6 Gy. The procedure:
as §1

Assay [4] relates to UM-SCC1 cells. Kind of assay: Apoptosis by caspase activity, UM-SCC1. Type of assay: cell-based, human. Particulars: erlotinib 1 μM combined with radiation 6 Gy. On the procedure: as §1
The subject of assay [5] is H226 cells. Briefly: Radiation clonogenic survival, H226. In kind it is cell-based, human. Particulars: erlotinib 0.1 μM for 3 days before irradiation, 6 and 9 Gy (p<0.05).
Description: as §3
The subject of the next assay is PCNA. Kind of assay: Immunohistochemical determination of PCNA in H226 xenografts. Type of assay: in vivo, athymic mice.
Assay [6] has as its system UM-SCC1 cells. Kind of assay: PARP cleavage by western blot, UM-SCC1. Type of assay: cell-based, human. The procedure:
(§2) Following treatment, cells were lysed with RIPA buffer and sonicated in complete proteinase inhibitor cocktail (Roche) and sodium orthovanadate. Fifteen μg of protein extracts were mixed with SDS sample buffer and electrophoresed onto a 10% SDS-polyacrylamide gel under reducing conditions. The separated proteins were transferred onto nitrocellulose membranes (Amersham Pharmacia Biotech, Piscataway, N.J.). The membrane was incubated for 1 hour in blocking buffer (Tris-buffered saline with 0.1% Tween (TBS-T) and 5% nonfat dry milk). The membranes were then incubated with specific primary antibodies. After washing three times with TBS-T buffer, the membrane was incubated with horseradish peroxidase-linked secondary antibody (Amersham Pharmacia Biotech, Piscataway, N.J.) at 1:5000 dilution for 1 hour at room temperature. The signals were visualized with the ECL+ detection system and autoradiography.

Another assay relates to Rad51. Kind of assay: Radiation-induced Rad51 expression, immunoblot. Type of assay: cell-based, human. Particulars: pretreated with 1 μM erlotinib for 24 hrs; H226 and UM-SCC6; 6 Gy. The procedure:
as §2

Assay [7] deals with UM-SCC6 and H226 cell lines. Briefly: Cell cycle analysis by flow cytometry (propidium iodide). Type of assay: cell-based, human. On the procedure: Cells were harvested after 72 hours exposure of erlotinib, 24 hours exposure to 6 Gy radiation, or in combination. […] After removal of ethanol by centrifugation, cells were then incubated with phosphate-citric acid buffer [0.2 M Na2HPO4 (pH 7.8), and 4 mM citric acid] at room temperature for 45 min. After centrifugation, cells were then stained with a solution containing 33 μg/ml PI (propidium iodide), 0.13 mg/ml RNase A, 10 mM EDTA, and 0.5% Triton X-100 at 4° C. for 24 hours. Stained nuclei were analyzed for DNA-PI fluorescence using a Becton Dickinson FACScan flow cytometer. Resulting DNA distributions were analyzed by Modfit (Verity Software House, Inc., Topsham, Me.) for the proportion of cells in sub-G0, G1, S, and G2-M phases of the cell cycle.

Assay [8] relates to UM-SCC6 cells. Briefly: Apoptosis by caspase activity, UM-SCC6. In kind it is cell-based, human. The following applies: erlotinib 1 μM combined with radiation 6 Gy, p<0.05. The procedure:
as §1

Assay [9] deals with Egr-1, CXCL1, and IL-1β expression. Briefly: Validation of gene expression by quantitative RT-PCR and western blot. Type of assay: cell-based, human. Particulars: UM-SCC6; erlotinib 1.0 μM x 24 hrs pretreatment, 6 Gy. The procedure: as §2
To further validate the microarray findings, we performed quantitative real-time PCR (QPCR) using the SYBR green dye as previously described (Kleer, C. G., et al. (2003) Proc. Natl. Acad. Sci. USA 100(20):11606-11611). Briefly, 1 μg of total RNA isolated from each sample was reverse transcribed into first strand cDNA. Threshold levels were set for each experiment during the exponential phase of the PCR reaction using the SDS v 1.7 software (Applied Biosystems), and the quantity of DNA in each sample was calculated by interpolating its Ct value versus a standard curve of Ct values obtained from serially diluted cDNA from a mixture of all of the samples using Microsoft Excel. All standard curves had R2 values ≧0.99 over three orders of magnitude. The calculated quantity of the target gene for each sample was then divided by the average calculated quantity of the housekeeping genes glyceraldehyde-3 phosphate dehydrogenase (GAPD) and hydroxymethylbilane synthase (HMBS) corresponding to each sample to give a relative expression of the target gene for each sample. All oligonucleotide primers were synthesized by Integrated DNA Technologies. […]

Assay [10] has as its system UM-SCC6 cells. Kind of assay: PARP cleavage by western blot, UM-SCC6. Type of assay: cell-based, human. Particulars: erlotinib/radiation combination, data not shown.
Another assay relates to UM-SCC6 xenografts. Kind of assay: Tumor growth in athymic nude mice, UM-SCC6 xenografts.
The mark [11] stands for this setting: erlotinib alone 0.8 mg daily oral gavage, 3 weeks.
[12] abbreviates: erlotinib combined with radiation (2 Gy twice per week), 55-day observation, p<0.05.

Description for UM-SCC6 xenografts: Erlotinib was administered by oral gavage once daily for 3 weeks. Radiation treatment was delivered twice a week for 3 weeks using custom mouse jigs designed to expose only the tumor bed to radiation.
Combination studies determining apoptosis induction were evaluated using Student's t test with the resultant P value representing a two-sided test of statistical significance.

Regarding `C#Cc1cccc(Nc2ncnc3cc(OCCOC)c(OCCOC)cc23)c1` [erlotinib, [6,7-bis(2-methoxyethoxy)-4-quinazolin-4-yl]-(3-ethynylphenyl) amine], in [1], the “increase in apoptosis as determined by caspase activity” value is 10-25%. In addition, the survival entry with refractory NSCLC is “survival extension”. In addition, the tumor growth result with H226 xenografts (setting [11]) and with UM-SCC6 xenografts (setting [11]) was “modest inhibition of tumor growth” each time. Further, the figures for the “tumor growth inhibition, nature of combination effect” value with H226 xenografts (setting [12]) and in the assay with UM-SCC6 xenografts (setting [12]) were “synergistic” and “additive”, respectively. For the same compound, the “radiosensitization (reduction in clonogenic survival)” value in the assay with UM-SCC1 cells [2] and with H226 cells [5] was “modest but consistent radiosensitization” throughout. Also, the “increase in apoptosis, combined treatment” value in the assay on H226 cells [3] and in the assay on UM-SCC1 cells [4] was “additive increase in apoptosis” in each case. Besides, the “number of proliferating cells (PCNA staining)” value in the assay on PCNA (combined erlotinib/radiation) is “smallest”; with PCNA (erlotinib alone) it was “intermediate”. The PARP cleavage result in the assay with UM-SCC1 cells [6] (erlotinib 1 μM combined with radiation 6 Gy, UM-SCC1) is recorded as “Further increase in PARP cleavage”; in the assay with UM-SCC1 cells [6] (erlotinib alone 1 μM, 10 and 24 hours following treatment), “modest PARP cleavage”. Moreover, the “radiation-induced increase in Rad51 expression” value in the assay on Rad51 is reported as “attenuated significantly”. The S phase fraction result in assay [7] (erlotinib (0.1 μM) combined with radiation (6 Gy)) is recorded as “further reduction in the S phase fraction”. Further, in assay [7] (erlotinib alone (0.1 μM)), the “cell cycle phase distribution, G1” value is on record as “accumulation of cells in G1”. In addition, in [7] (erlotinib alone (0.1 μM)), the “number of cells in S phase” value is recorded as “reduced the number of cells in S phase”. Also, the “increase in apoptosis induction, combined treatment” value with UM-SCC6 cells [8] is listed as “supra-additive increase in apoptosis induction”. For the same compound, the “radiation-induced enhancement of CXCL1 expression” value in assay [9] was “inhibited”. Further, the “radiation-induced enhancement of Egr-1 expression” value in assay [9] is “inhibited”. The “radiation-induced enhancement of IL-1β expression” value in [9] is “inhibited”. For the same compound, in the assay on UM-SCC6 cells [10], the “enhancement in PARP cleavage” value is given as “even more pronounced”.
